Square brackets hold non-standard residues; d marks the D form. Ends that are not written are not given here. Ahx = NCCCCCC(=O)O
Experiments:
Bcl-2 in HCT-116 cells = assay: Level of Bcl-2 in cells, antibody staining and flow cytometry; type: cell-based, human; conditions: 24 hours
Experimental: Example 4. Investigation of the peptide sequences effect on change in the level of Bcl-2 Monoclonal antibodies Anti Human Bcl-2 (Caltag Laboratories, USA) were used to estimated change in the level of Bcl-2 in HCT-116 cells when incubated with the study peptide sequence. The cells were transferred to a 24-well plate at 1 x 10^4 per well, grown for 48 hours under normal conditions (medium DMEM, 10%), then synchronized using the depleted medium containing 0.5% PBS for 48 hours. Upon removing the synchronizing block the medium containing 10% PBS was added to the cells, and the peptide sequences were studied at concentrations of 10 and 40 µM. Incubation with the peptides was performed for 24 hours, then the culture was removed with the help of trypsin, fixed for one hour with PBS containing 1% formaldehyde, and then fixed with ethanol. The staining and the analysis were performed according to the antibodies manufacturer's instructions. […] It is thereby shown that the apoptosis induced by introduction of the peptide sequences into the culture medium is explained by influence of the peptides on specific molecular processes of the cell.

pRb in SKOV cell line = assay: Level of underphosphorylated pRb by flow cytometry; type: cell-based; conditions: 10 and 40 µM
Experimental: (§1) Flow cytometry allows to render the cells, where the pRb product is in the "underphosphorylated" state. The fluorescently labeled antibodies interact with "underphosphorylated" pRb.
In the study of the "underphosphorylated" pRb level using SKOV cell line, the delay effect in formation of "underphosphorylated" pRb was lower than for cultures MCF-7 and HCT-116, although this cell line was previously shown to have the proliferation delay effect during incubation of the cells with the study peptide sequences. […] Obvious "underphosphorylated" pRb formation delay effect compared to the control sample, however, in the case of SKOV cell line, was somewhat lower than that of cultures of MCF-7 and HCT-116.

pRb in MCF-7 = assay: Level of underphosphorylated pRb by flow cytometry; type: cell-based; conditions: 10 and 40 µM
Excerpt: (§2) Although the literature describes the retention of such peptides properties to inhibit a phosphorylating function for cyclin-dependent kinases, this was confirmed in cell extracts. We monitored changes in the level of pRB phosphorylation - molecular target of type D cyclin kinase against the background of the investigated peptides, including the sequences, having homology with p16INK4a, at the cellular level with the help of flow cytometry method.
as §1
(§3) To determine the amount of "underphosphorylated" pRb, a series of experiments was performed, where the study peptide sequences were added to the cell cultures, synchronized with the help of depleted cell culture medium method (MCF-7, HCT-116), after removing the synchronization block, then the cells were sampled every two hours. A part of the cells from each plate was fixed to further define the phases of the cell cycle, and to determine the amount of the "underphosphorylated" pRb. Also a negative control was set in the form of synchronized cells samples, but without added peptide. It was shown that introduction of the peptide sequences into the cell culture inhibits the pRb phosphorylation and reduces its maximum level in the culture (Figure 19).

pRb in HCT-116 = assay: Level of underphosphorylated pRb by flow cytometry; type: cell-based, human
Excerpt: as §2, §1, §3
As it is seen in Figure 19, the level of "underphosphorylated" pRb begins to grow after removal of the synchronization block in the control samples without addition of the peptide, and to a certain point (4 or 6 hours of incubation), depending on the cell line, it reaches a maximum and then begins to decline. In the samples with peptides the level of "underphosphorylated" pRb begins to increase later and reaches its maximum after 12-18 hours of incubation, the delay in reaching the maximum level of pRb depends on concentration of the peptide sequences. […] We analyzed the level of "underphosphorylated" pRb every two hours; the maximum incubation time was 24 hours.

SKOV (ovarian cancer) = assay: Cytostatic effect: cell cycle phases and hypodiploid peak on DNA-histograms after synchronization; type: cell-based; conditions: 5-40 µM, 24 hours
Experimental: (§4) Using cell lines MCF-7, HCT-116, A549 (lung adenocarcinoma) and SKOV (ovarian cancer) we studied the effect of the peptide sequences on the cells proliferative activity. The experiments involved synchronization of the cells in G0/G1-phase of the cells cycle using depleted culture medium. The cells in 24-well plate were held for 48 hours in the medium containing 0.5% PBS, then the synchronization block was removed via replacement of the medium with one containing 5% PBS and the study peptides in different concentrations. It was incubated for 24 hours, and then the cells were removed from the matrix using trypsin, washed in PSB, fixed in ethanol. Staining of samples, washing from ethanol in PBS using centrifugation, incubation with RNA-ase, staining with propidium iodide. Analysis was performed using flow cytometry, we evaluated the distribution of cells in the cell cycle phases on DNA-histograms using ModFit 3.0 software. For cells cultures MCF-7 and HCT-116 we studied the effect of 5 peptide sequences in concentrations of 10 and 40 µM. It was shown that the study sequences are able to decrease the proliferating activity of the dividing cells (Figure 9).
When studying the effect of the peptide sequences on SKOV cells culture the incubation was performed with the sequences F26K-1, F26K-2, W26K-1, and W26K-2. […]

HCT-116 = assay: Cytostatic effect: cell cycle phases on DNA-histograms after synchronization in G0/G1; type: cell-based, human
Experimental: as §4

MCF-7 (breast cancer) [1] = assay: Cytotoxic activity on proliferating cell lines, Annexin V/PI flow cytometry; type: cell-based; conditions: 5-40 µM, 24 hours
Experimental: (§5) We studied the effect of peptide sequences D37K, F26K-1, F26K-2, W26K-1, W26K-2 on the cells of transplanted cell cultures MCF-7 (breast cancer), A549 (lung adenocarcinoma), SKOV (ovarian cancer) and HCT116 (colon adenocarcinoma).
(§6) When preparing for the experiment the cells cultures were placed in 24-well plates in amount of 1 * 10^4 cells per well, incubated for 48 hours at 37°C and 5% CO2, medium DMEM (PanEco, Russia), containing glutamine, gentamicin, 10% PBS. After such incubation the cell cultures formed loose mono-layer. Experimental set-up: culture medium was replaced with the medium containing the study peptides in the concentrations of 5 µM, 10 µM, 20 µM, 40 µM; in the control samples the medium contained DMSO 20 µL to determine the effect of solvent (peptides were dissolved in DMSO). Incubation time was 24 hours. Then the cells were carefully removed from the matrix using trypsin (cells in the wells with peptides were attached stronger than the control sample), the medium was removed via centrifugation at 3,000 rounds for 7 minutes, supernatant fluid was removed and the staining was performed using double mark Annexin V/PI. Analysis was performed using flow cytometer and evaluated the number of cells including Annexin V - apoptosis, the number of cells including propidium iodide - dead cells, the number of intact cells - live cells.

MCF-7 (breast cancer) [2] = assay: Combined effect with Taxol or 5-fluorouracil, Annexin and propidium iodide flow cytometry; type: cell-based; conditions: 10, 20, 30 µM, 24 hours
Experimental: In cell culture MCF-7 (breast cancer) there was investigated the combined effect of DA, 5-fluorouracil and Taxol, and the sequences D37K and F26K-2 (in the cytotoxicity studies the sequence had the most pronounced effect on the MCF-7 culture). The cells were grown in 24-well plates to 70% of the monolayer, followed by replacement of the medium with the medium containing the target sequence and drugs in concentrations of 10, 20 and 30 µM. The incubation time was 24 hours. Analyzed cells, which entered into apoptosis, were detected using Annexin and propidium iodide staining, flow cytometry.

[3] = system: HCT116 (colon adenocarcinoma); assay: Cytotoxic activity on proliferating cell lines, Annexin V/PI flow cytometry; type: cell-based, human; conditions: 5-40 µM, 24 hours
Experimental: as §5, §6

MCF-7 = assay: Cytostatic effect: cell cycle phases on DNA-histograms after synchronization in G0/G1; type: cell-based; conditions: 10 and 40 µM
Experimental: as §4

H-FLDAILLI[Ahx] [F26K-2]
inhibition of the expression of Bcl-2 protein (Bcl-2 in HCT-116 cells; 10 and 40 µM): strongest inhibition
decrease of the level of Bcl-2-positive cells (Bcl-2 in HCT-116 cells; 40 µM): over 15%
delay in formation of "underphosphorylated" pRb as compared to the control (pRb in SKOV cell line): 4-10 hours
delay in the formation of "underphosphorylated" pRb (pRb in MCF-7): greatest delay
delay in formation of "underphosphorylated" pRb (pRb in HCT-116; 10 and 40 µM): greatest effect of the delay
incubation time of maximum level of "underphosphorylated" pRb (pRb in HCT-116; peptide 10 µM): 16 hours
incubation time of maximum level of "underphosphorylated" pRb (pRb in HCT-116; peptide 40 µM): 20 hours
antiproliferative effect (cells in G0/G1 and S+G2/M) (SKOV (ovarian cancer)): caused the delay of proliferation
antiproliferative effect (HCT-116; 10 and 40 µM): most clear antiproliferative effect
delay in cells leaving the rest phase (HCT-116; synchronized culture, 40 µM (Fig. 10)): 8 to 12 h
apoptosis level (Annexin V) (MCF-7 (breast cancer) [1]): more pronounced pro-apoptosis effect
combined use with 5-fluorouracil, cytotoxic effect (MCF-7 (breast cancer) [2]): linear amplification
combined use with Taxol, level of apoptosis (MCF-7 (breast cancer) [2]): summation of cytotoxic effects
apoptosis level (Annexin V) [3]: more pronounced pro-apoptosis effect
antiproliferative effect (MCF-7): most clear antiproliferative effect
